Results as given in ChEMBL document CHEMBL1765075, “Discovery and structure-activity relationship of 3-aminopyrid-2-ones as potent and selective interleukin-2 inducible T-cell kinase (Itk) inhibitors” (J Med Chem, 2011).
≈ marks a conversion by molar mass, not a printed value. Calls of active or inactive are those of the source. The rule behind the calls is not given here.

Experiments:
[1] = biological target: T1, Receptor-type tyrosine-protein kinase FLT3 (Homo sapiens, UniProt P36888); test: Inhibition of Flt3 after 20 mins by radiometric phosphate incorporation assay
T1 sequence (P36888 whole entry): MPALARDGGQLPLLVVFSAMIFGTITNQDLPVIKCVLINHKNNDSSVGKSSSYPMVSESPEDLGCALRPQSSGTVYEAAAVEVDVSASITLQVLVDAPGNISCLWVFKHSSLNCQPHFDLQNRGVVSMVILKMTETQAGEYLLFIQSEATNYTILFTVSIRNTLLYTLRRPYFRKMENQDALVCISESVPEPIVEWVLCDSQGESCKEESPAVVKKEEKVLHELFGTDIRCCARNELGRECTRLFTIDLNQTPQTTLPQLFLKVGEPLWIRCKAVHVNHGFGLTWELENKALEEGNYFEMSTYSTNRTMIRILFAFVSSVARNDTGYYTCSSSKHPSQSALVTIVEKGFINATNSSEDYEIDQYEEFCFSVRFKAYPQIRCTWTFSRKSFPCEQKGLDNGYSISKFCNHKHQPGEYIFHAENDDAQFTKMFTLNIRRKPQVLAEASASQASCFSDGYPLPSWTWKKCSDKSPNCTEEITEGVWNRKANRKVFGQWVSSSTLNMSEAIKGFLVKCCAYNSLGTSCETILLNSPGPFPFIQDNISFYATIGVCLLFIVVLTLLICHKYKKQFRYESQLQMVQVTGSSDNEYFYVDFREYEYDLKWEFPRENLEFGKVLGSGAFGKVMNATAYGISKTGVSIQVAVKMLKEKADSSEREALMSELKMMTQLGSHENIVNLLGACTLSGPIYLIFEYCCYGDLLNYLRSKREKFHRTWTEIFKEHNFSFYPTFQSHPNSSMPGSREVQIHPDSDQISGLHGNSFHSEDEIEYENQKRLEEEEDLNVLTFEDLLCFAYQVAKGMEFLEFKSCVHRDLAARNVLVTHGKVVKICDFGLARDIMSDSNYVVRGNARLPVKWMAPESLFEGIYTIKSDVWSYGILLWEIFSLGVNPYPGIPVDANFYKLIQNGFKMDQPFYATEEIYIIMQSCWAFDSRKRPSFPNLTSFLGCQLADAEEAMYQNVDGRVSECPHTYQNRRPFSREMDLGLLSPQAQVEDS

[2] = biological target: Proto-oncogene tyrosine-protein kinase Src (Homo sapiens, UniProt P12931); test: Inhibition of Src after 10 mins by radiometric phosphate incorporation assay
[3] = biological target: Mast/stem cell growth factor receptor Kit (Homo sapiens, UniProt P10721); test: Inhibition of c-Kit after 45 mins by radiometric phosphate incorporation assay
[4] = biological target: T2, Tyrosine-protein kinase ITK/TSK (Homo sapiens, UniProt Q08881); test: Inhibition of Itk after 40 mins by radiometric phosphate incorporation assay
T2 sequence (Q08881 whole entry): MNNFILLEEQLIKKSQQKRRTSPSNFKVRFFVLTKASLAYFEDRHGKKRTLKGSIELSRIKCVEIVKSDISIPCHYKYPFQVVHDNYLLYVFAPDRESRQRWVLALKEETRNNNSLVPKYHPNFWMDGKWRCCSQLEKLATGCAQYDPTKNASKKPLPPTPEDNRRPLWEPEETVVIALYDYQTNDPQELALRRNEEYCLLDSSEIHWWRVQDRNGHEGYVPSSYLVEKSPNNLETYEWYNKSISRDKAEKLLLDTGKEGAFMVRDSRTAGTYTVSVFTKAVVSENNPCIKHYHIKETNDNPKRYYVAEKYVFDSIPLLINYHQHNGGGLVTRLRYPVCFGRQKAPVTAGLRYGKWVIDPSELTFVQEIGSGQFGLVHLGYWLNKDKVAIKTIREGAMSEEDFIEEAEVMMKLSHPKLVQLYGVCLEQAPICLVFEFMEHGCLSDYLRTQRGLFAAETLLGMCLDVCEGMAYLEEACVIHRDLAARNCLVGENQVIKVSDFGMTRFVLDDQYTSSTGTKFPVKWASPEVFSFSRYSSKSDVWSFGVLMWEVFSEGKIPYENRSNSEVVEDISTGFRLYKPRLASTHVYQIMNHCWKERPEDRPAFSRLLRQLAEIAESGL

[5] = biological target: Tyrosine-protein kinase ITK/TSK (Homo sapiens) (UniProt Q08881); conditions: 3 uM
Description: Inhibition of Itk at 3 uM after 40 mins by radiometric phosphate incorporation assay

[6] = Permeability across basolateral to apical side of human Caco2 cells after 120 mins by LC-MS/MS analysis; format: ADME, cell-based; conditions: Caco-2, read-out: permeability
[7] = Solubility of the compound in phosphate buffer at pH 7.4 by high throughput shake flask assay; format: physicochemical
[8] = Octanol-phosphate buffer partition coefficient, log D of the compound at pH 7.4 by HPLC analysis; format: physicochemical
[9] = Permeability across apical to basolateral side of human Caco2 cells after 120 mins by LC-MS/MS analysis; format: ADME, cell-based; conditions: Caco-2, read-out: permeability
[10] = biological target: Tyrosine-protein kinase ITK/TSK (Homo sapiens) (UniProt Q08881); test: Inhibition of Itk at 30 uM after 40 mins by radiometric phosphate incorporation assay

Mast/stem cell growth factor receptor Kit, sequence (P10721 whole entry): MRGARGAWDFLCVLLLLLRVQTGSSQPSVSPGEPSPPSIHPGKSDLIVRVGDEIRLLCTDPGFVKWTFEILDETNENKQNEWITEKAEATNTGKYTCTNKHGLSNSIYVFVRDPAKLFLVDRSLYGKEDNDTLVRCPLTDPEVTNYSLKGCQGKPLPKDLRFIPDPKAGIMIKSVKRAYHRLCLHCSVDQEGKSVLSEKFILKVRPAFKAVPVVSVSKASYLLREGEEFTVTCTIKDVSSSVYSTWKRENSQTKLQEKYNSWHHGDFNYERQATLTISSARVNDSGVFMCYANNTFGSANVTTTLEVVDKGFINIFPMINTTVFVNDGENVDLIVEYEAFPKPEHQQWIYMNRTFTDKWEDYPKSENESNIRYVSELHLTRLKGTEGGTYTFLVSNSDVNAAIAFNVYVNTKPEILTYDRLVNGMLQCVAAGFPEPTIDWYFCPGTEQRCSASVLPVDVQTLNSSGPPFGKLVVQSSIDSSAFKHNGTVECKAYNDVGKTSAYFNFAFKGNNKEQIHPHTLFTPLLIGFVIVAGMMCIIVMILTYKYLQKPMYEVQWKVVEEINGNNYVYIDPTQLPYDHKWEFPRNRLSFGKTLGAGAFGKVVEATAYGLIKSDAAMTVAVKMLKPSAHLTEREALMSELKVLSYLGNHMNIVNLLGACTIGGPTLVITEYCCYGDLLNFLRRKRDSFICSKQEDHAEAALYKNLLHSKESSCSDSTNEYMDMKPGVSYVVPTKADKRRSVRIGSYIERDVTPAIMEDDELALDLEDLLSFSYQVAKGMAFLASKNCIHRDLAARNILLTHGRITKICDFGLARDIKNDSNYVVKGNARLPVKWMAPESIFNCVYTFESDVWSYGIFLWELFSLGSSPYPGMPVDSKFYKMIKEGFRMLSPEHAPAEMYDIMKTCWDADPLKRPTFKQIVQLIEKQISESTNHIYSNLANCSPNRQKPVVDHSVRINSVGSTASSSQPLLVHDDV
Proto-oncogene tyrosine-protein kinase Src, sequence (P12931 2-536 limits assumed): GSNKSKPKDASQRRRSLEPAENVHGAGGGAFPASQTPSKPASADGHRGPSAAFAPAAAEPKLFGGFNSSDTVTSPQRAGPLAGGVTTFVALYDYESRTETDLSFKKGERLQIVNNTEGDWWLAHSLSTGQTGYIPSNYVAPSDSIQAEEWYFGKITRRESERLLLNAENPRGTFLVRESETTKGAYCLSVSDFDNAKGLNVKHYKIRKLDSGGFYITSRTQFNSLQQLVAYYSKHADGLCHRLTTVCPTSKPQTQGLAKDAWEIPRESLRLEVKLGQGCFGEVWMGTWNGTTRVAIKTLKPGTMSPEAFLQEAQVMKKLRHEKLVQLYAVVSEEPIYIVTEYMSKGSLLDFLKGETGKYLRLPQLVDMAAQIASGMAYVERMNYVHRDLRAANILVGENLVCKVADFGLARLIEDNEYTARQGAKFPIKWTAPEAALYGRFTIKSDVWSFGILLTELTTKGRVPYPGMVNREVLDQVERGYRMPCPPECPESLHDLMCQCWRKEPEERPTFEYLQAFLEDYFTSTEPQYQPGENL

O=C(Nc1cc(-c2ccncc2)c[nH]c1=O)c1ccc(N2CCCCC2)cc1
Ki [1]: 32 nM
Ki [2]: 1800 nM
Ki [3]: 12 nM

CCc1ccc(C(=O)Nc2cc(-c3ccncc3)c[nH]c2=O)cc1
Ki [4]: 530 nM

O=C(Nc1cc(-c2ccncc2)c[nH]c1=O)c1ccc(N2CCCC2)cc1
Ki [4]: 170 nM

N#Cc1ccc(C(=O)Nc2cc(-c3ccncc3)c[nH]c2=O)cc1
inhibition [5]: 15%
Ki [4]: > 6000 nM

CNc1nccc(-c2c[nH]c(=O)c(NC(=O)c3ccc(N4CCCCC4)cc3)c2)n1
Ki [1]: 5 nM
Ki [3]: < 10 nM
Ki [4]: 16 nM

CNc1cncc(-c2c[nH]c(=O)c(NC(=O)c3ccc(N4CCCCC4)cc3)c2)c1
Ki [1]: 1050 nM
Ki [3]: 270 nM

O=C(Nc1ccc(N2CCCCC2)cc1)c1cc(-c2ccncc2)c[nH]c1=O
Ki [4]: 140 nM

CNc1cccc(-c2c[nH]c(=O)c(NC(=O)c3ccc(N4CCCCC4)cc3)c2)c1
Ki [1]: 80 nM
Ki [2]: 220 nM
Ki [3]: 81 nM
Ki [4]: 145 nM

CNc1cncc(-c2c[nH]c(=O)c(NC(=O)c3ccc(N4CCCCC4)cc3)c2)n1
Ki [1]: 110 nM
Ki [3]: 155 nM

CC(C)(C)c1ccc(C(=O)Nc2cc(-c3ccncc3)c[nH]c2=O)cc1
Ki [1]: 11 nM
Ki [2]: 1320 nM
Ki [3]: 27 nM
Ki [4]: 120 nM

O=C(Nc1cc(-c2ccncc2)c[nH]c1=O)c1ccc(C2CCCCC2)cc1
Ki [4]: 220 nM

O=C(Nc1cc(-c2ccncc2)c[nH]c1=O)c1ccccc1
Ki [4]: 1300 nM

O=C(Cc1ccccc1)Nc1cc(-c2ccncc2)c[nH]c1=O
Ki [4]: > 30000 nM

CN(C)c1ccc(C(=O)Nc2cc(-c3ccncc3)c[nH]c2=O)cc1
Ki [1]: 8 nM
Ki [2]: 2800 nM
Ki [3]: 46 nM
Ki [4]: 210 nM

Cc1cccc(C(=O)Nc2cc(-c3ccncc3)c[nH]c2=O)c1
Ki [4]: 2100 nM

O=C(Nc1cc(-c2ccncc2)c[nH]c1=O)C1CCCCC1
Ki [4]: > 30000 nM

CNc1cc(C#N)cc(-c2c[nH]c(=O)c(NC(=O)c3ccc(N4CCC[C@H]4CN4CCCC4)cc3)c2)c1
Ki [1]: 410 nM
Papp B→A at 2 h [6]: 16.4 ×10⁻⁶ cm/s
Ki [2]: 480 nM
solubility thermodynamic [7]: 23 µg/mL (≈ 46.3 µM)
Ki [3]: 400 nM
logD [8]: 3.9
Papp A→B at 2 h [9]: 3.3 ×10⁻⁶ cm/s
Ki [4]: 27 nM

CNc1cc(-c2c[nH]c(=O)c(NC(=O)c3ccc(N4CCCCC4)cc3)c2)ccn1
Ki [1]: 6 nM
Ki [3]: 12 nM

O=C(Nc1cc(-c2cccc(NC3CC3)n2)c[nH]c1=O)c1ccc(N2CCCCC2)cc1
Ki [1]: 120 nM
Ki [2]: > 4000 nM
Ki [4]: > 2000 nM

CNc1cc(F)cc(-c2c[nH]c(=O)c(NC(=O)c3ccc(N4CCC[C@H]4CN4CCCC4)cc3)c2)c1
Ki [1]: 80 nM
Papp B→A at 2 h [6]: 19.9 ×10⁻⁶ cm/s
Ki [2]: 300 nM
solubility thermodynamic [7]: 34 µg/mL (≈ 69.4 µM)
Ki [3]: 400 nM
logD [8]: 3.9
Papp A→B at 2 h [9]: 3.3 ×10⁻⁶ cm/s
Ki [4]: 20 nM

CNc1cncc(-c2c[nH]c(=O)c(NC(=O)c3ccc(N4CCC[C@H]4CN4CCCC4)cc3)c2)c1
Ki [1]: 140 nM
Ki [2]: 280 nM
solubility thermodynamic [7]: 115 µg/mL (≈ 243 µM)
Ki [3]: 1300 nM
logD [8]: 2.9
Ki [4]: 20 nM

CNc1cc(-c2c[nH]c(=O)c(NC(=O)c3ccc(N4CCCCC4)cc3)c2)ncn1
Ki [1]: 20 nM
Ki [3]: 83 nM

CNc1cccc(-c2c[nH]c(=O)c(NC(=O)c3ccc(N4CCCCC4)cc3)c2)n1
Ki [1]: 69 nM
Ki [3]: 148 nM

Nc1cc(-c2ccncc2)c[nH]c1=O
inhibition [10]: inactive
